Entries after “also recorded” stand apart in the source; their conditions may differ. Read-outs that look alike come from different tables or passages of the source.
Columns and labels:
in vivo = conditions: intraperitoneal injection, Table 5; for LD50: in vivo, ip, read-out: LD50 (mg/kg) by Kerber
Method: (§1) Psychoneurotropic activity of the declared compounds and their influence on learning and memory were observed using unbred male (18-20 g) mice and 180-200 g) rats, held at standard conditions (room temperature 21°-22° C., 12-hours lighting schedule, food and water ad libitum).
Acute toxicity was studied by the method of Kerber with intra peritoneal drug injection.

rats [1] = assay: Passive avoidance test in normal rats, 50% acquisition; type: in vivo; conditions: for change in vivo at 0.1 mg/kg: Rattus norvegicus, 20 min, read-out: Increase of the number of correct trails (% to control). Passive avoidance test (rats); for Performance of normal rats in passive avoidance test / Improving learning and memory compared with amiridine and piracetam: normal rats; for Improving learning and memory compared with amiridine and piracetam: passive avoidance test
Method: as §1
(§2) The influence of drugs on reflex conditioning in rats was studied by the passive avoidance test in conditions of 50% acquisition. The effect of the compound was estimated by the increase of the relative number of learned animals with respect to that of control group. […] The other reference drug--noothropic agent piracetam--was given in the dose 250 mg/kg 60 min before training. Amnestic syndrome was stimulated by 20 days application of Sc at the daily dose of 1 mg/kg intraperitoneally. […] The passive avoidance test was performed within 24 hours after the last application of test preparations.

mice [2] = assay: Step-down test, scopolamine induced amnesia; type: in vivo
Method: as §1

K channels = assay: Ionic permeabilities of excitable membranes, voltage clamp in the Ranvier node; type: cell-based, frog; conditions: for Block of K-channels IC (M): Ranvier node of the frog, voltage clamp
mice [3] = assay: Psychotropic activity test: motor activity; type: in vivo; conditions: intraperitoneally, dose 1/20 of LD
[4] = target: T1, Acetylcholinesterase, enzyme from human erythrocytes (Homo sapiens, UniProt P22303); assay: Acetylcholinesterase inhibition, spectrophotometric technique of Ellman; type: biochemical; conditions: for IC50: Acetylcholinesterase inhibition IC50 (M); for IC50 / Acetylcholinesterase inhibition IC50 (M): enzyme from human erythrocytes, Table 5
T1 construct: on the enzyme from human erythrocytes; from tissue; host or cells: human erythrocytes
T1 sequence (P22303-2 with tags, fused parts or gaps limits assumed): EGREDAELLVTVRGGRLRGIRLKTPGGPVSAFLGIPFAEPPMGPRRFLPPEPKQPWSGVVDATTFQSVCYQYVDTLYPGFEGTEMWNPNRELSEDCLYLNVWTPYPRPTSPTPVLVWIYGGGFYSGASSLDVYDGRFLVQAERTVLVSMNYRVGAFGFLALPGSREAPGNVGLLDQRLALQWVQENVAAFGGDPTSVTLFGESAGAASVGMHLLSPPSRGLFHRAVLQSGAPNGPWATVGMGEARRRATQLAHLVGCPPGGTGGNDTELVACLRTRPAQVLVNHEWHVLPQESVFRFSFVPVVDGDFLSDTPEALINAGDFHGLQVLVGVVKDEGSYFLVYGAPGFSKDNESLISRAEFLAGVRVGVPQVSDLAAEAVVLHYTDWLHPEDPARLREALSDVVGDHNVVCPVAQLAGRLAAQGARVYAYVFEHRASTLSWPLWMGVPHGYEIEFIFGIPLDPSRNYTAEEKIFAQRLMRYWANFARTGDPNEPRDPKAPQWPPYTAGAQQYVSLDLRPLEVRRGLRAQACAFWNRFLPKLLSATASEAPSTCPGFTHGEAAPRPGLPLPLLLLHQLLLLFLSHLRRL
Method: Acetylcholinesterase inhibition under the action of preparations was assessed by the spectrophotometric technique of Ellman on the enzyme from human erythrocytes.

mice [5] = assay: Psychotropic activity test: arecoline induced hyperkynesis; type: in vivo; conditions: intraperitoneally, dose 1/20 of LD
old rats = assay: Passive avoidance test in old rats; type: in vivo; conditions: old rats (18 month), 20 days application, 1 mg/kg (piracetam 250 mg/kg)
Method: as §2
Improvement of animal performance was accompanied by the normalizing of brain synaptosomes microviscosity under the action of all the substances tested. […] The latter observation indicates to the possible interference of amiridine and substance Vo into the processes of atherogenesis in old animals.

rats [6] = assay: Passive avoidance test on the model of amnestic syndrome (multiple scopolamine injection); type: in vivo; conditions: rats; scopolamine 1 mg/kg 20 days, then drug 10 days (1 mg/kg; piracetam 250 mg/kg)
Method: The influence of drugs on reflex conditioning in rats was studied by the passive avoidance test in conditions of 50% acquisition. The effect of the compound was estimated by the increase of the relative number of learned animals with respect to that of control group. […] The passive avoidance test was performed within 24 hours after the last application of test preparations.

rat adipocytes [7] = assay: Lipid content in incubation medium after incubation of adipocytes; type: cell-based; conditions: incubation medium; Table 12
Method: (§3) Lipid regulative activity of the declared compounds--derivatives of 9-amino acridine--were evaluated in vitro[…] using rat adipocytes. Adipocytes were separated from adipose tissue of testis appendages of adult male rats. Lipid composition analysis was performed by the method of thin-layer chromatography.
(§4) Quantitative analysis of phospholipids (PL), mono- and diacylglycerides (MDG), triacylglycerides (TG), free fatty acids (FFA), free cholesterol (FCL), and methyl esters of fatty acids (MEFA) was performed by the method of spectrophotometry.

rat adipocytes [8] = assay: Lipid composition of adipocytes after incubation with compounds; type: cell-based; conditions: for FFA/TG in adipocytes / PL/CL in adipocytes / PL/TG in adipocytes: cells, Table 11; for FFAc/FFAm / PLc/PLm: distribution between cells and incubation medium, Table 13
Method: as §3, §4

[9] = ip, rats, 0.1 mg/kg i.p. 20 min before training, piracetam 250 mg/kg 60 min before training
[10] = rats, 0.1 mg/kg i.p. 20 min before training, piracetam 250 mg/kg 60 min before training

Compound | LD50 (in vivo) [mg/kg] | change in vivo at 0.1 mg/kg (rats [1]; [9]) [%] | Antiamnestic activity in Step-down test (% of mice with latency > cut off) (mice [2]) | The shift of activation region of K channels: substance lowest concentrations in M producing measureable shift of 1-2 mV (K channels) | Motor activity increment (% to control) (mice [3]) | IC50 [4] [M] | Increase of duration of arecoline induced hyperkynesis (% to control) (mice [5]) | Performance of normal rats in passive avoidance test (rats [1]) | LD50 (mg/kg) by Kerber (in vivo) [mg/kg] | Increase of the number of correct trails (% to control). Passive avoidance test (rats) (rats [1]; [10]) | further results
CC1(C)CC(=O)c2c(nc3ccccc3c2N)C1 [IVb] | 70 ± 4.3 | 30 | 0 % of mice | no effect | 0 % to control | 3.5e-06 | 33 % to control | – | – | – | Block of K-channels IC (M) (K channels): no effect
NC(=O)CN1CCCC1=O [Piracetam, piracetam, reference compound] | 1000 | – | – | – | 0 % to control | – | 0 % to control | – | – | – | Passive avoidance latency in 7 days after training (old rats): 120.0 ± 24.3 s; Passive avoidance latency (rats [6]): 162.3 ± 13.3 s; change in vivo at 0.1 mg/kg (rats [1]): 63%; Acetylcholinesterase inhibition IC50 (M) [4]: no effect
CN1[C@@H]2C[C@@H](OC(=O)[C@H](CO)c3ccccc3)C[C@H]1[C@@H]1O[C@@H]12 [Scopolamine (Sc), scopolamine] | – | – | – | – | – | – | – | – | – | – | Passive avoidance latency (rats [6]): 70.4 ± 10.5 s
CC1(C)C=Cc2c(nc3ccccc3c2N)C1 [VIIb] | 37.5 ± 0.9 | 40 | 25 % of mice | – | 41 % to control | 7.5e-08 | 25 % to control | statistically significantly improved performance of normal rats | – | – | Antiamnestic activity in Step-down test (mice [2]): pronounced antiatonestic activity, comparable with that of amiridine and tacrine; Block of K-channels IC (M) (K channels): no effect
CC1(C)C=Cc2c(nc3ccccc3c2NCc2ccc(Cl)cc2)C1 [VIId] | 126 ± 8.9 | 60 | 20 % of mice | – | 28 % to control | 6e-09 | 15 % to control | statistically significantly improved performance of normal rats | – | – | Improving learning and memory compared with amiridine and piracetam (rats [1]): as effective in improving learning and memory as amiridine and piracetam; FFA/TG in incubation medium (rat adipocytes [7]): 0.96; PL/CL in incubation medium (rat adipocytes [7]): 0.75; PL/TG in incubation medium (rat adipocytes [7]): 0.67; Change of lipid composition in adipocytes (rat adipocytes [8]): significaut lipolytic effect; also recorded: significant lipolytic effect; Lipid-regulative effect compared with probucol (rat adipocytes [8]): not inferior; Potency of effect on lipid composition of adipocytes (rat adipocytes [8]): most potent effect on lipid composition of adipocytes; FFA/TG in adipocytes (rat adipocytes [8]): 1.16; PL/CL in adipocytes (rat adipocytes [8]): 0.69; PL/TG in adipocytes (rat adipocytes [8]): 0.73; FFAc/FFAm (rat adipocytes [8]): 1.07; PLc/PLm (rat adipocytes [8]): 0.97
CC1(C)C=Cc2c(nc3ccccc3c2NCc2ccccc2)C1 [VIIi] | – | – | 25 % of mice | – | 20 % to control | – | 15 % to control | statistically significantly improved performance of normal rats | 500 | 35 % to control | Antiamnestic activity in Step-down test (mice [2]): pronounced antiatonestic activity, comparable with that of amiridine and tacrine
CC1(C)Cc2nc3ccccc3c(N)c2C(O)C1 (stereo not drawn) [VIb] | 63.3 ± 8.8 | 20 | 0 % of mice | – | 40 % to control | 1.2e-06 | 66 % to control | – | – | – | –
Cc1ccc(CNc2c3c(nc4ccccc24)CC(C)(C)CC3O)c(C)c1 (stereo not drawn) [VIi] | – | – | 0 % of mice | no effect | 13 % to control | 1e-06 | 46 % to control | – | 75.0 ± 1.2 | 15 % to control | –
Cc1ccc(CNc2c3c(nc4ccccc24)CC(C)(C)CC3O)c(C)c1 (stereo not drawn) [VIj] | – | – | 0 % of mice | no effect | 55 % to control | 2.5e-06 | 13 % to control | statistically significantly improved performance of normal rats | 33.4 ± 3.2 | 40 % to control | FFA/TG in incubation medium (rat adipocytes [7]): 1.03; PL/CL in incubation medium (rat adipocytes [7]): 0.65; PL/TG in incubation medium (rat adipocytes [7]): 0.62; FFA/TG in adipocytes (rat adipocytes [8]): 1.08; PL/CL in adipocytes (rat adipocytes [8]): 0.80; PL/TG in adipocytes (rat adipocytes [8]): 0.85; FFAc/FFAm (rat adipocytes [8]): 0.95; PLc/PLm (rat adipocytes [8]): 1.24
CCCCNc1c2c(nc3ccccc13)CC(C)(C)CC2=O [Vaa] | – | – | 25 % of mice | – | 26 % to control | – | 25 % to control | – | 650.0 ± 11.3 | 15 % to control | FFA/TG in incubation medium (rat adipocytes [7]): 0.92; PL/CL in incubation medium (rat adipocytes [7]): 0.71; PL/TG in incubation medium (rat adipocytes [7]): 0.55; Antiamnestic activity in Step-down test (mice [2]): pronounced antiatonestic activity, comparable with that of amiridine and tacrine; FFA/TG in adipocytes (rat adipocytes [8]): 0.94; PL/CL in adipocytes (rat adipocytes [8]): 0.63; PL/TG in adipocytes (rat adipocytes [8]): 0.58; FFAc/FFAm (rat adipocytes [8]): 1.01; PLc/PLm (rat adipocytes [8]): 1.04
CC1(C)CC(=O)c2c(nc3ccccc3c2NCc2ccccc2)C1 [Vb] | 735 ± 21.8 | 25 | 0 % of mice | no effect | 80 % to control | – | 15 % to control | – | – | – | AChE inhibition IC (M) ([4]; Table 6): no effect; Acetylcholinesterase inhibition IC50 (M) [4]: no effect
Cc1ccc(CNc2c3c(nc4ccccc24)CC(C)(C)CC3=O)c(C)c1 [Vd] | > 1000 | 50 | 20 % of mice | – | 90 % to control | 1e-05 | 0 % to control | statistically significantly improved performance of normal rats | – | – | Improving learning and memory compared with amiridine and piracetam (rats [1]): as effective in improving learning and memory as amiridine and piracetam
CC1(C)CC(=O)c2c(nc3ccccc3c2NCc2ccc(Cl)cc2)C1 [Vf] | > 1000 | 0 | 0 % of mice | no effect | 13 % to control | 8e-05 | 0 % to control | – | – | – | –
